In patent US20090088441A1, “Quinoline Compounds” (priority 2007, published 2009):
pEC50: −log10 of the molar value.

How the values were obtained:
[1] = target: T1, GABABR1a/GABABR2 heterodimer (Homo sapiens, UniProt O75899+Q9UBS5); assay: GTPγS35 radioligand filtration-binding assay for determination of agonist potency; type: biochemical; details: membranes of CHO K1 Flp-In cells expressing GABABR1a/GABABR2; 30° C., 1 hour
T1 construct: expressed in transfected cells; membrane preparation
Method: (§1) The potency and efficacy of the compounds acting as agonists at the GABAB receptor was also determined in a automated GTPγS^35 radioligand filtration-binding assay.
(§2) The GABAB receptor is a G-protein coupled receptor. Binding of a ligand activates the receptor leading to recruitment of G-protein and a substitution of the G-protein bound GDP to GTP. The G-protein becomes active. The G-protein is inactivated by hydrolysis of GTP to GDP. G-proteins are membrane bound and therefore present in membrane preparations.
(§3) In the GTPγS^35 assay, GTP is not present but instead GTPγS^35 where one of the phosphate groups are substituted to a sulphur group which cannot be hydrolysed. Upon activation of the receptor, radiolabelled GTPγS^35 replaces the GDP. The complex cannot be inactivated and the radiolabelled complex is accumulating. At the end of the assay, the reaction mixture is filtered through a membrane-binding filter. Excess GTPγS^35 is removed by washing and the membrane bound S^35, which correlates to the degree of receptor activation, is measured with a β-Liquid Scintillation Counter.
The human GABABR1a was subcloned into pIRESneo3 (Clontech) using GABABR1a construct as a template (refseqN NM001470). GABABR2 was subcloned into pcDNA5/FRT (Invitrogen) using GABABR2 construct as a template (refseqN NM005458). The Kozak sequence GCCACC was introduced before the start codon in both constructs.
For generation of stable cell lines, CHO K1 Flp-In cells (Invitrogen) were grown in DMEM/F12 1:1 media supplemented with 10% FBS at 37° C. in a humidified CO2-incubator. The cells were detached with Accutase and 1.5 million cells were seeded into T75 flasks. After 24 h, transfection of the cells were performed with the GABABR2 construct. For generation of cell lines expressing GABABR2, GABABR2 plasmid (1 μg) and pOG44 from Invitrogen (9 μg) were mixed with 30 μl Lipofectamine 2000 in 600 μl OptiMEM for 20 minutes. The cells were exposed to transfection medium for 5 hours and was then replaced with culture medium. After 2 days 0.5 mg/ml Hygromycin were added to culture medium. The cells were cultured for an additional 10 days to establish a stable cell mix expressing GABABR2. For generation of a cell line expressing the GABABR1a/GABABR2 hetrodimer, GABABR1a plasmid DNA (8 μg) and Lipofectamine (30 μl) were mixed in 600 μl OptiMEM and incubated for 20 minutes before added to CHO-Flp-In cells expressing GABABR2. After 2 days additional selection agent was added (0.8 mg/ml Geneticin). The cells were cultured for another 10 days to generate a stable mixed population expressing the GABABR1a/GABABR2 heterodimer. The cell line was analyzed by GTPγS^35 assay with GABA as agonist.
GTPγS^35 radioligand filtration-binding assays were performed using an automated workstation at 30° C. for 1 hour in assay buffer (50 mM HEPES, 40 mM NaCl, 1 mM MgCl2×6H2O, 30 μg/mL Saponin, pH 7.4 at RT) containing 0.025 μg/μL of membrane protein (prepared from the cell line described above), 10 μM GDP and 0.55 nCi/μL GTPγS^35 in a final volume of 60 μL. The reaction was started by the addition of compounds (GABA was always included as a positive control), start concentration 100 μM dilution factor 3. The reaction was terminated and membranes collected by addition of ice-cold wash buffer (50 mM Tris-HCl, 5 mM MgCl2×6H2O, 50 mM NaCl, pH 7.4 at 4° C.) followed by rapid filtration under vacuum through a MultiScreen HTS 384 FB filter plate. Repeated washing of the filters with ice-cold wash buffer washed the unbound radioligand away. The filter plates were dried for 1½-2 hours at 50° C., then 8 μL scintillation liquid was added per well followed by incubation at RT for at least 20 minutes before bound radioactivity was determined using a β-Liquid Scintillation Counter (1450 Microbeta Trilux, Wallac, Finland)
100% activation (max) is calculated as the mean value for wells containing 1 mM GABA. […]

[2] = target: T2, GABAB(1A,2) receptor heterodimer (Homo sapiens, UniProt O75899+Q9UBS5); assay: GTPγS35 radioligand filtration-binding assay for determination of PAM potency; type: biochemical; details: membranes of CHO-K1 cells expressing GABABR1a/GABABR2; GABA dose-response with 10, 1, 0.1 and 0.01 μM PAM; concentration reducing GABA's EC50 by 50%; read-out: Mean (EC50 derived) PAM EC50
T2 construct: expressed in transfected cells; membrane preparation
T2 sequence (Q9UBS5 15-961 limits assumed): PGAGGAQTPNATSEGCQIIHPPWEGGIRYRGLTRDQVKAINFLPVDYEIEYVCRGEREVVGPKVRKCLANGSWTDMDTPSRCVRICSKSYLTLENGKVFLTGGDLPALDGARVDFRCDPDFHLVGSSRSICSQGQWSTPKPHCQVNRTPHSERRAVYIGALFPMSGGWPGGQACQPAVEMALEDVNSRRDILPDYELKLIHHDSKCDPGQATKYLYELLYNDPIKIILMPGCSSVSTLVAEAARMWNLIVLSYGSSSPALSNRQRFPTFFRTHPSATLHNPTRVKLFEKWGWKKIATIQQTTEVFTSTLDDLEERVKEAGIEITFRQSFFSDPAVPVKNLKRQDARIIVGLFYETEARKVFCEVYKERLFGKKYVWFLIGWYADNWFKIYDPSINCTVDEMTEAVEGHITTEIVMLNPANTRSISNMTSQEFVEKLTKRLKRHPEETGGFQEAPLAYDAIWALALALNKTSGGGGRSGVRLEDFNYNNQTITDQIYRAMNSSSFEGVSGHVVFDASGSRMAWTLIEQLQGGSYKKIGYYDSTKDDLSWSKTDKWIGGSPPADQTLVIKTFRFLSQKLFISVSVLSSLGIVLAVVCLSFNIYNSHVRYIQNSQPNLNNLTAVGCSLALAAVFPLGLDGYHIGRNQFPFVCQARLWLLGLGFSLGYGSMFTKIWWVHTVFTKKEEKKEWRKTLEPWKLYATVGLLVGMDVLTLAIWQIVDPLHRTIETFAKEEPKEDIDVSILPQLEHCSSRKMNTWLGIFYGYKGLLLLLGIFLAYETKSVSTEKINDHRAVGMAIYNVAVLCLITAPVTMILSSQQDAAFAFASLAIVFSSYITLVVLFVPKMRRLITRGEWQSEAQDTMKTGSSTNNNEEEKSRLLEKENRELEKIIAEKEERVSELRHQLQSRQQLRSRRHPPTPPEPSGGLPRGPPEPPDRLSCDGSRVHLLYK
T2 sequence (O75899 42-941): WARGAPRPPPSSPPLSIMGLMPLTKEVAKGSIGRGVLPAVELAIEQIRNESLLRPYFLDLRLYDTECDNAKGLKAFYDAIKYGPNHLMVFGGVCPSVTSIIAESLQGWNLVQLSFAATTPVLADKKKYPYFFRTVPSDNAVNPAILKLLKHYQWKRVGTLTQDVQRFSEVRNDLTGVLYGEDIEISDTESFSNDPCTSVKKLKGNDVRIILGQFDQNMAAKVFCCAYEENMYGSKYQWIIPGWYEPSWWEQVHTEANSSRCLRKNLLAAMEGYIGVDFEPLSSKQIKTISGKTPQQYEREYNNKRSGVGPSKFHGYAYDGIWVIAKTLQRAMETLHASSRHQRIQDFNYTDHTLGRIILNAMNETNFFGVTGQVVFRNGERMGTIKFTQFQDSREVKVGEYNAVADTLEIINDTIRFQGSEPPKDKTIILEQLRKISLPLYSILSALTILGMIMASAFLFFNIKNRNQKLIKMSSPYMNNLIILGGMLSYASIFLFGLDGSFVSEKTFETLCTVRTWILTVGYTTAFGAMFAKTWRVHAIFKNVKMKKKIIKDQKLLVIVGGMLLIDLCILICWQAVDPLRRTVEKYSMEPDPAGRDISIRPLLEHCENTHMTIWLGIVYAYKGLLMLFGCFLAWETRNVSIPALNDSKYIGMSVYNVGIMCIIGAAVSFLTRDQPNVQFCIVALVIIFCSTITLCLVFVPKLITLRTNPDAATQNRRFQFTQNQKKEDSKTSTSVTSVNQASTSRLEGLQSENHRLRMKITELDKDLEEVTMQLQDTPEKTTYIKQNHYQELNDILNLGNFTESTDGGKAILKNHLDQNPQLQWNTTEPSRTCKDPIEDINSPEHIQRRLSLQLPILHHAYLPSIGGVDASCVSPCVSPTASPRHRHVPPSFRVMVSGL
Method: The effect of GABA in an automated GTPγS^35 radioligand filtration-binding assay in CHO cells expressing the GABAB(1A,2) receptor heterodimer was studied in the presence or absence of the positive allosteric modulator test compounds.
as §1, §2, §3
GABABR1a and GABABR2 were cloned from human brain cDNA and subcloned into pCI-Neo (Promega) and pALTER-1 (Promega), respectively.
In order to optimise the Kozak consensus sequence of GABABR2, in situ mutagenesis was performed using the Altered Sites Mutagenesis kit according to manufacturer's instruction (Promega) with the following primer, 5′-[…]-3′. The optimised GABABR2 was then restricted from pALTER-1 with Xho I+Kpn I and subcloned into the mammalian expression vector pcDNA3.1 (−)/Zeo (Invitrogen) to produce the final construct, pcDNA3.1 (−)/Zeo-GABABR2.
For generation of stable cell lines, CHO-K1 cells were grown in Nut mix F-12 (Ham) media supplemented with 10% FBS, 100 U/ml Penicillin and 100 μg/ml Streptomycin at 37° C. in a humidified CO2-incubator. The cells were detached with 1 mM EDTA in PBS and 1 million cells were seeded in 100 mm petri dishes. After 24 hours the culture media was replaced with OptiMEM and incubated for 1 hour in a CO2-incubator.
For generation of a cell line expressing the GABABR1a/GABABR2 heterodimer, GABABR1a plasmid DNA ([…]) GABABR2 plasmid DNA (4 μg) and lipofectamine (24 μl) were mixed in 5 ml OptiMEM and incubated for 45 minutes at room temperature. […] After expansion, the GABAB receptor functional response was tested by measuring the GABAB receptor dependent release of intracellular calcium in a fluorescence imaging plate reader (FLIPR). […]

T1 sequence (Q9UBS5 15-961 limits assumed): as the sequence (Q9UBS5 15-961 limits assumed) above
T1 sequence (O75899 42-941): as the sequence (O75899 42-941) above

pEC50 [1]: 5.19
pEC50 [2]: 5.04
SMILES: Cc1nc2ccc(Br)cc2c(-c2ccc(F)cc2)c1C(C)Oc1ccc(Cl)cc1 (centres unmarked) [Example 2, 6-bromo-3-[1-(4-chlorophenoxy)ethyl]-4-(4-fluorophenyl)-2-methylquinoline]
